The values below come from PubChem BioAssay AID328 (DTP/NCI, 2004).

Values joined by “and” are separate entries in the source; they are usually repeats but may differ in a detail not shown here. Identical values can stand only once. Inconclusive results and toxic doses are left out.

The experiment deals with BDF1 mice, P388 leukemia ip, median survival T/C. Nature of the experiment: NCI In Vivo Anticancer Drug Screen. Data for tumor model P388 Leukemia (intraperitoneal) in B6D2F1 (BDF1) mice. Conditions: endpoint: median survival time, higher = longer survival. The essentials:
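Steps: implant the tumour, treat one group with compound and another with vehicle, record survival, then divide treated by control.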

[1] abbreviates: dose: 100.0 mg/kg/injection, schedule: Q01DX009 (ip), vehicle: saline with Tween-80.
[2] abbreviates: dose: 200.0 mg/kg/injection, schedule: Q01DX009 (ip), vehicle: saline with Tween-80.
Where [3] appears, read: dose: 400.0 mg/kg/injection, schedule: Q01DX009 (ip), vehicle: saline with Tween-80.
Where [4] appears, read: dose: 25.0 mg/kg/injection, schedule: Q01DX009 (ip), vehicle: saline with Tween-80.
Setting [5] is: dose: 50.0 mg/kg/injection, schedule: Q01DX009 (ip), vehicle: saline with Tween-80.
Setting [6] is: dose: 100.0 mg/kg/injection, schedule: Q04DX003 (ip), vehicle: saline.
[7] abbreviates: dose: 200.0 mg/kg/injection, schedule: Q04DX003 (ip), vehicle: saline.
The mark [8] stands for this setting: dose: 400.0 mg/kg/injection, schedule: Q04DX003 (ip), vehicle: saline.
The mark [9] stands for this setting: dose: 12.5 mg/kg/injection, schedule: Q01DX009 (ip), vehicle: saline with Tween-80.
The mark [10] stands for this setting: dose: 6.25 mg/kg/injection, schedule: Q01DX009 (ip), vehicle: saline with Tween-80.
Setting [11] is: dose: 12.5 mg/kg/injection, schedule: Q01DX009 (ip), vehicle: saline.
[12] abbreviates: dose: 25.0 mg/kg/injection, schedule: Q01DX009 (ip), vehicle: saline.
[13] abbreviates: dose: 50.0 mg/kg/injection, schedule: Q01DX009 (ip), vehicle: saline.
[14] abbreviates: dose: 100.0 mg/kg/injection, schedule: Q01DX009 (ip), vehicle: saline.
Where [15] appears, read: dose: 6.25 mg/kg/injection, schedule: Q01DX009 (ip), vehicle: saline.

Turning to `NC(=S)N/N=C\c1c[nH]c2nccnc12`, the T/C is, setting by setting: (dose: 25.0 mg/kg/injection, schedule: Q01DX009 (ip), vehicle: water) 106 % of control; (dose: 50.0 mg/kg/injection, schedule: Q01DX009 (ip), vehicle: water) 92 % of control; (dose: 100.0 mg/kg/injection, schedule: Q01DX009 (ip), vehicle: water) 100 % of control; (dose: 400.0 mg/kg/injection, schedule: Q01DX009 (ip), vehicle: water) 86 % of control.

Turning to `COc1cc(/C=N\Nc2ccccc2[N+](=O)[O-])cc(OC)c1OC`, the T/C is, setting by setting: under setting [1], 95 % of control; under setting [2], 104 % of control; under setting [3], 104 % of control.

For the compound `O=C(NC(=O)c1c(F)cccc1F)Nc1ncc(Br)cc1Br`, the T/C under setting [4] is 90 % of control, the T/C under setting [5] was 97 % of control and the T/C under setting [1] was 96 % of control.

For `CSc1nc(Cl)c(Br)c(Sc2nc(N)nc3nc[nH]c23)n1`, where the note is “dose: 132.0 mg/kg/injection, schedule: Q04DX003 (ip), vehicle: saline with Tween-80”, the T/C is 120 % of control.

In the case of `CCCCN(c1ccccc1)c1ncnc2c1cnn2C`, the T/C was 92 % of control and 100 % of control under setting [1]; 100 % of control and 108 % of control (dose: 100.0 mg/kg/injection, schedule: Q04DX003 (ip), vehicle: saline with Tween-80); 107 % of control under setting [2]; 91 % of control and 100 % of control (dose: 200.0 mg/kg/injection, schedule: Q04DX003 (ip), vehicle: saline with Tween-80); 96 % of control and 100 % of control under setting [3]; 95 % of control and 100 % of control (dose: 400.0 mg/kg/injection, schedule: Q04DX003 (ip), vehicle: saline with Tween-80).

Regarding `COc1ccc(NC(=O)Oc2ccc3c(C)cc(=O)oc3c2)c(OC)c1`, the T/C reads like this: under setting [2], 155 % of control; under setting [3], 100 % of control.

`COc1cccc(S(=O)c2ccc([N+](=O)[O-])c3no[n+]([O-])c23)c1` (centres undefined): under “dose: 15.0 mg/kg/injection, schedule: Q01DX009 (ip), vehicle: saline with Tween-80”, the T/C was 112 % of control.

For `COc1cc2ccc(CC(=O)NCCc3ccc4c(c3)OCO4)cc2cc1OC`, the T/C runs as follows: (dose: 100.0 mg/kg/injection, schedule: Q04DX003 (ip), vehicle: Klucel (hydroxypropylcellulose) (HPC)) 100 % of control; (dose: 200.0 mg/kg/injection, schedule: Q04DX003 (ip), vehicle: Klucel (hydroxypropylcellulose) (HPC)) 90 % of control; (dose: 400.0 mg/kg/injection, schedule: Q04DX003 (ip), vehicle: Klucel (hydroxypropylcellulose) (HPC)) 90 % of control.

With `OC1C=CC2C3C=CC(C3)C12` (centres undefined), the T/C was 96 % of control under setting [6], 92 % of control under setting [7] and 103 % of control under setting [8].

On to `Cn1c(=O)c2[nH]c(CN(CCCl)CCCl)nc2n(C)c1=O`, for which the T/C is, setting by setting: (dose: 0.88 mg/kg/injection, schedule: Q04DX003 (ip), vehicle: saline with Tween-80) 100 % of control; (dose: 1.32 mg/kg/injection, schedule: Q04DX003 (ip), vehicle: saline with Tween-80) 109 % of control; (dose: 2.0 mg/kg/injection, schedule: Q04DX003 (ip), vehicle: saline with Tween-80) 119 % of control; (dose: 2.4 mg/kg/injection, schedule: Q01DX009 (ip), vehicle: saline with Tween-80) 154 % of control; (dose: 3.7 mg/kg/injection, schedule: Q01DX009 (ip), vehicle: saline with Tween-80) 160 % of control; (dose: 5.56 mg/kg/injection, schedule: Q01DX009 (ip), vehicle: saline with Tween-80) 163 % of control and 178 % of control. Further, the T/C runs as follows: (dose: 8.33 mg/kg/injection, schedule: Q01DX009 (ip), vehicle: saline with Tween-80) 172 % of control; under setting [9], 201 % of control.

In the case of `CCOC(=O)/C=C(\C)SC1=CC(=O)c2ccccc2C1=O`, the T/C (dose: 3.13 mg/kg/injection, schedule: Q01DX009 (ip), vehicle: saline with Tween-80) is 102 % of control; the T/C under setting [10] was 104 % of control; the T/C under setting [9] is 112 % of control; the T/C under setting [4] was 104 % of control.

On to `CSC(=O)OCC1=CC2OC(=O)C3=COC(OC4OC(CO)C(O)C(O)C4O)C1C32` (centres undefined), for which the T/C by setting is: (dose: 2.0 mg/kg/injection, schedule: Q01DX009 (ip), vehicle: saline with Tween-80) 101 % of control; (dose: 4.0 mg/kg/injection, schedule: Q01DX009 (ip), vehicle: saline with Tween-80) 101 % of control; (dose: 16.0 mg/kg/injection, schedule: Q01DX009 (ip), vehicle: saline with Tween-80) 111 % of control.

For `CN(C)P(=O)(N(C)C)N(C)CCN(C)P(=O)(N(C)C)N(C)C`, the T/C reads like this: under setting [11], 108 % of control; under setting [12], 101 % of control; under setting [13], 101 % of control and 111 % of control.

Regarding `COC(=O)C(C)C(C)=O` (centres undefined), the T/C by setting is: (dose: 100.0 mg/kg/injection, schedule: Q04DX003 (sc), vehicle: olive oil, sesame oil, peanut oil) 100 % of control; (dose: 200.0 mg/kg/injection, schedule: Q04DX003 (sc), vehicle: olive oil, sesame oil, peanut oil) 104 % of control; (dose: 400.0 mg/kg/injection, schedule: Q04DX003 (sc), vehicle: olive oil, sesame oil, peanut oil) 100 % of control.

For the compound `Cc1ccc2c(c1)=N/C(=N/c1[nH]c(O)c3ccccc13)N=2`, the T/C reads like this: under setting [10], 108 % of control; under setting [9], 99 % of control; under setting [4], 108 % of control.

As to `C=Cc1ccc(Oc2ccccc2)cc1`, the T/C under setting [12] was 104 % of control, the T/C under setting [13] is 104 % of control and the T/C under setting [14] was 109 % of control.

For `CCCCOn1nnc2cc(Cl)ccc21`, the T/C is 97 % of control under setting [5], 101 % of control under setting [1] and 117 % of control under setting [2].

For `COc1cc(NCCCCCCCNC(C)C)c2nccc(C)c2c1`, the T/C runs as follows: (dose: 3.13 mg/kg/injection, schedule: Q01DX009 (ip), vehicle: saline) 105 % of control; under setting [15], 98 % of control and 115 % of control; under setting [12], 109 % of control and 116 % of control.

Turning to `COC(=O)C(CCC1CCCCN1)(c1ccccc1)c1ccccc1` (centres undefined), the T/C is 123 % of control (dose: 66.0 mg/kg/injection, schedule: Q04DX003 (ip), vehicle: saline with Tween-80) and 90 % of control under setting [14].

For `NC1CSSC1`, the T/C (dose: 0.39 mg/kg/injection, schedule: Q01DX009 (ip), vehicle: water) was 93 % of control and 108 % of control; the T/C (dose: 1.56 mg/kg/injection, schedule: Q04DX003 (ip), vehicle: water) is 97 % of control; the T/C (dose: 3.12 mg/kg/injection, schedule: Q04DX003 (ip), vehicle: water) is 106 % of control; the T/C (dose: 6.25 mg/kg/injection, schedule: Q01DX009 (ip), vehicle: water) is 91 % of control and 94 % of control and 96 % of control; the T/C (dose: 6.25 mg/kg/injection, schedule: Q04DX003 (ip), vehicle: water) is 105 % of control.

For the compound `NCCCC(=O)O`, the T/C is 100 % of control (dose: 100.0 mg/kg/injection, schedule: Q01DX001 (ip), vehicle: saline); 109 % of control under setting [6]; 100 % of control (dose: 200.0 mg/kg/injection, schedule: Q01DX001 (ip), vehicle: saline); 86 % of control under setting [7]; 90 % of control (dose: 400.0 mg/kg/injection, schedule: Q01DX001 (ip), vehicle: saline); 118 % of control under setting [8].

In the case of `Cn1c(Cl)nc2c(Cl)nc(Cl)nc21`, the T/C is 105 % of control (dose: 1.0 mg/kg/injection, schedule: Q01DX009 (ip), vehicle: Klucel (hydroxypropylcellulose) (HPC)); 100 % of control (dose: 2.0 mg/kg/injection, schedule: Q01DX009 (ip), vehicle: Klucel (hydroxypropylcellulose) (HPC)); 110 % of control (dose: 4.0 mg/kg/injection, schedule: Q01DX009 (ip), vehicle: Klucel (hydroxypropylcellulose) (HPC)); 105 % of control (dose: 8.0 mg/kg/injection, schedule: Q01DX009 (ip), vehicle: Klucel (hydroxypropylcellulose) (HPC)); 100 % of control (dose: 16.0 mg/kg/injection, schedule: Q01DX009 (ip), vehicle: Klucel (hydroxypropylcellulose) (HPC)).

For the compound `CN(C)CCCN1c2ccccc2Sc2ccc(F)cc21`, the T/C is, setting by setting: under setting [15], 104 % of control; under setting [11], 109 % of control; under setting [12], 122 % of control; (dose: 25.0 mg/kg/injection, schedule: Q04DX003 (ip), vehicle: saline) 104 % of control; (dose: 50.0 mg/kg/injection, schedule: Q04DX003 (ip), vehicle: saline) 118 % of control.

Consider `Cc1ccccc1N=C(N)N=C(N)N`, for which the T/C runs as follows: under setting [13], 100 % of control; under setting [14], 100 % of control.
